Where a SMILES comes first, the peptide text is derived from it. Bridges are numbered along the chain shown (N, C = ends). [ ]: non-standard residue; d: D form. The star is where a group is joined. Phe(4-CH2CH2COOH) = N[C@@H](Cc1ccc(CCC(=O)O)cc1)C(=O)O; Phe(4-COOH) = N[C@@H](Cc1ccc(C(=O)O)cc1)C(=O)O; Trp(7-Me) = Cc1cccc2c(C[C@H](N)C(=O)O)c[nH]c12; Bip = N[C@@H](Cc1ccc(-c2ccccc2)cc1)C(=O)O; Phe(3-Cl) = N[C@@H](Cc1cccc(Cl)c1)C(=O)O; Phe(3-OMe) = COc1cccc(C[C@H](N)C(=O)O)c1; Phe(3-Me) = Cc1cccc(C[C@H](N)C(=O)O)c1; 4Pal = N[C@@H](Cc1ccncc1)C(=O)O; Cha = N[C@@H](CC1CCCCC1)C(=O)O; Cit = NC(=O)NCCC[C@H](N)C(=O)O; Carboxymethyl = O=C(O)C*; Orn = NCCC[C@H](N)C(=O)O; Dab = NCC[C@H](N)C(=O)O; Nva = CCC[C@H](N)C(=O)O; Dap = NC[C@H](N)C(=O)O; Propargyl = C#CC*
These compounds were tested against T1, human PD-1 / PD-L1-Ig binding on Jurkat cell line over-expressing human PD-1 (Jurkat-PD-1) (Homo sapiens, UniProt Q15116) (assay: Jurkat-PD-1 Cell Binding High-Content Screening Assay (CBA)). Details: Jurkat-PD-1 cells, PE-labeled PD-L1-Ig 20 nM final; read-out: Jurkat HPD1_PDL1 IC50.
T1 construct: expressed in transfected cells; host or cells: Jurkat
T1 sequence (Q15116 25-288): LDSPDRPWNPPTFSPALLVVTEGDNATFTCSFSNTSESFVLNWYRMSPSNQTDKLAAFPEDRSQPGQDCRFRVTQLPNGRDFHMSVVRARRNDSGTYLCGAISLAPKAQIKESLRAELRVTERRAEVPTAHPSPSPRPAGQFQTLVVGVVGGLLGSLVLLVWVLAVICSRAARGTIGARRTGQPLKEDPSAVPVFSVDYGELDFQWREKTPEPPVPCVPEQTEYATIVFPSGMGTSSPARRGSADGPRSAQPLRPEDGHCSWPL
Type: cell-based
Outline: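 Cell-bound PE-labeled PD-L1-Ig (20 nM final, 1 h) measured by high-content imaging after fixation and Hoechst 33342 counterstain. Compound was applied first for 2 h at 37° C. to Jurkat cells over-expressing human PD-1 in DMEM with 10% FCS.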
`C#CCOc1ccc(C[C@@H]2NC(=O)[C@H](Cc3ccc(-c4ccccc4)cc3)NC(=O)[C@H](Cc3ccc(OCC(=O)O)cc3)NC(=O)[C@H](Cc3cccc(C)c3)NC(=O)[C@H](CC(=O)O)NC(=O)[C@H](Cc3ccc(OCC(=O)O)cc3)NC(=O)[C@H](CCC)NC(=O)CSC[C@@H](C(=O)N[C@@H](CCN)C(N)=O)NC(=O)[C@H](CCC(=O)O)NC(=O)[C@H](C(C)C)NC(=O)[C@H](CC3CCCCC3)NC(=O)[C@H](CCN)NC(=O)[C@@H](CC(C)C)NC(=O)[C@H](CCCN)NC2=O)cc1` [Compound 1837] ({CH2CO}-[Nva]Y(Carboxymethyl)D[Phe(3-Me)]Y(Carboxymethyl)[Bip]Y(Propargyl)[Orn][dL][Dab][Cha]VEC[Dab]-NH2; thioether N-14) was tested, and the IC50 was 0.0083 µM. `CC(C)[C@@H]1NC(=O)[C@H](Cc2c[nH]c3ccccc23)NC(=O)[C@H](CC(=O)O)NC(=O)[C@H](Cc2ccncc2)NC(=O)[C@H](CN)NC(=O)CSC[C@@H](C(=O)N[C@@H](C)C(N)=O)NC(=O)[C@H]([C@@H](C)O)NC(=O)[C@H](C(C)C)NC(=O)[C@H](CC2CCCCC2)NC(=O)[C@H](CCN)NC(=O)[C@@H](Cc2ccc(O)cc2)NC(=O)[C@H](CCCN)NC(=O)[C@H](CCC(=O)O)NC(=O)[C@H](Cc2ccc(-c3ccccc3)cc2)NC1=O` [Compound 1446] ({CH2CO}-[Dap][4Pal]DWV[Bip]E[Orn][dY][Dab][Cha]VTCA-NH2; thioether N-14) showed an IC50 of 0.0645 µM. In the case of `COc1cccc(C[C@@H]2NC(=O)[C@H](CCN)NC(=O)[C@@H](CC(C)C)NC(=O)[C@H](CCCN)NC(=O)[C@H](CCC(=O)O)NC(=O)[C@H](Cc3ccc(-c4ccccc4)cc3)NC(=O)[C@H](C(C)C)NC(=O)[C@H](Cc3c[nH]c4ccccc34)NC(=O)[C@H](CC(=O)O)NC(=O)[C@H](Cc3ccc(OCC(=O)O)cc3)NC(=O)[C@H](CN)NC(=O)CSC[C@@H](C(=O)N[C@@H](C)C(N)=O)NC(=O)[C@H]([C@@H](C)O)NC(=O)[C@H](C(C)C)NC2=O)c1` [Compound 1469] ({CH2CO}-[Dap]Y(Carboxymethyl)DWV[Bip]E[Orn][dL][Dab][Phe(3-OMe)]VTCA-NH2; thioether N-14), the IC50 is reported as 0.0296 µM. For `CC(C)C[C@H]1NC(=O)[C@H](CCCN)NC(=O)[C@H](CCC(=O)O)NC(=O)[C@H](Cc2ccc(-c3ccccc3)cc2)NC(=O)[C@H](C(C)C)NC(=O)[C@H](Cc2cccc(Cl)c2)NC(=O)[C@H](CC(=O)O)NC(=O)[C@H](Cc2ccncc2)NC(=O)[C@H](Cc2ccc(OCC(=O)O)cc2)NC(=O)CSC[C@@H](C(=O)N[C@@H](C)C(N)=O)NC(=O)[C@H]([C@@H](C)O)NC(=O)[C@H](C(C)C)NC(=O)[C@H](CC2CCCCC2)NC(=O)[C@H](CCN)NC1=O` [Compound 1493] ({CH2CO}-Y(Carboxymethyl)[4Pal]D[Phe(3-Cl)]V[Bip]E[Orn][dL][Dab][Cha]VTCA-NH2; thioether N-14), the IC50 was 0.0108 µM. `C#CCOc1ccc(C[C@@H]2NC(=O)[C@H](Cc3ccc(-c4ccccc4)cc3)NC(=O)[C@H](Cc3ccc(OCC(=O)O)cc3)NC(=O)[C@H](Cc3cccc(C)c3)NC(=O)[C@H](CC(=O)O)NC(=O)[C@H](Cc3ccc(OCC(=O)O)cc3)NC(=O)[C@H]([C@@H](C)O)NC(=O)CSC[C@@H](C(=O)N[C@@H](CCN)C(N)=O)NC(=O)[C@H](CCC(=O)O)NC(=O)[C@H](C(C)C)NC(=O)[C@H](CC3CCCCC3)NC(=O)[C@H](CCN)NC(=O)[C@@H](CC(C)C)NC(=O)[C@H](CCCN)NC2=O)cc1` [Compound 1836] ({CH2CO}-TY(Carboxymethyl)D[Phe(3-Me)]Y(Carboxymethyl)[Bip]Y(Propargyl)[Orn][dL][Dab][Cha]VEC[Dab]-NH2; thioether N-14) was tested, and the IC50 was 0.0072 µM. Work on `CC[C@H](C)[C@@H]1NC(=O)[C@H](Cc2ccc(-c3ccccc3)cc2)NC(=O)[C@H](C(C)C)NC(=O)[C@H](Cc2c[nH]c3ccccc23)NC(=O)[C@H](CC(=O)O)NC(=O)[C@H](Cc2ccc(OCC(=O)O)cc2)NC(=O)[C@H](CN)NC(=O)CSC[C@@H](C(=O)N[C@@H](C)C(N)=O)NC(=O)[C@H]([C@@H](C)O)NC(=O)[C@H](C(C)C)NC(=O)[C@H](CC2CCCCC2)NC(=O)[C@H](Cc2cnc[nH]2)NC(=O)[C@@H](CC(C)C)NC(=O)[C@H](CCCN)NC1=O` [Compound 1589] yielded an IC50 of 0.0164 µM. `CC(C)C[C@H]1NC(=O)[C@H](CCCN)NC(=O)[C@H](C(C)C)NC(=O)[C@H](Cc2ccc(-c3ccccc3)cc2)NC(=O)[C@H](C(C)C)NC(=O)[C@H](Cc2c[nH]c3ccccc23)NC(=O)[C@H](CC(=O)O)NC(=O)[C@H](Cc2ccncc2)NC(=O)[C@H](Cc2ccc(OCC(=O)O)cc2)NC(=O)CSC[C@@H](C(=O)N[C@@H](C)C(N)=O)NC(=O)[C@H]([C@@H](C)O)NC(=O)[C@H](C(C)C)NC(=O)[C@H](CC2CCCCC2)NC(=O)[C@H](CCN)NC1=O` [Compound 1331] gave an IC50 of 0.006 µM. Compound `CC[C@H](C)[C@@H]1NC(=O)[C@H](Cc2ccc(-c3ccccc3)cc2)NC(=O)[C@H](C(C)C)NC(=O)[C@H](Cc2cccc(C)c2)NC(=O)[C@H](CC(=O)O)NC(=O)[C@H](Cc2ccc(C(=O)O)cc2)NC(=O)[C@H](Cc2ccncc2)NC(=O)CSC[C@@H](C(=O)N[C@@H](C)C(N)=O)NC(=O)[C@H]([C@@H](C)O)NC(=O)[C@H](C(C)C)NC(=O)[C@H](CC2CCCCC2)NC(=O)[C@H](CCN)NC(=O)[C@@H](CC(C)C)NC(=O)[C@H](CCCN)NC1=O` [Compound 1192] has an IC50 of 0.0071 µM. With `CC(C)C[C@@H]1NC(=O)[C@H](Cc2c[nH]c3ccccc23)NC(=O)[C@H](CC(=O)O)NC(=O)[C@H](Cc2ccc(CCC(=O)O)cc2)NC(=O)[C@H](Cc2ccc(OCC(=O)O)cc2)NC(=O)CSC[C@@H](C(=O)NCC(N)=O)NC(=O)[C@H](CO)NC(=O)[C@H](C(C)C)NC(=O)[C@H](CC(C)C)NC(=O)[C@H](CCN)NC(=O)[C@@H](CC(C)C)NC(=O)[C@H](CCCN)NC(=O)[C@H](C(C)C)NC(=O)[C@H](Cc2ccc(-c3ccccc3)cc2)NC1=O` [Compound 1256] ({CH2CO}-Y(Carboxymethyl)[Phe(4-CH2CH2COOH)]DWL[Bip]V[Orn][dL][Dab]LVSCG-NH2; thioether N-14) the IC50 was 0.0067 µM. In the case of `Cc1cccc2c(C[C@@H]3NC(=O)[C@H](CC(=O)O)NC(=O)[C@H](Cc4ccc(OCC(=O)O)cc4)NC(=O)[C@H](CN)NC(=O)CSC[C@@H](C(=O)N[C@@H](CCN)C(N)=O)NC(=O)[C@H]([C@@H](C)O)NC(=O)[C@H](C(C)C)NC(=O)[C@H](CC4CCCCC4)NC(=O)[C@H](CCN)NC(=O)[C@@H](CC(C)C)NC(=O)[C@H](CCCN)NC(=O)[C@H](C(C)C)NC(=O)[C@H](Cc4ccc(-c5ccccc5)cc4)NC(=O)[C@H](C(C)C)NC3=O)c[nH]c12` [Compound 2018] ({CH2CO}-[Dap]Y(Carboxymethyl)D[Trp(7-Me)]V[Bip]V[Orn][dL][Dab][Cha]VTC[Dab]-NH2; thioether N-14), the IC50 is reported as 0.335 µM. With `CC(C)C[C@@H]1NC(=O)[C@H](CCN)NC(=O)[C@@H](CC(C)C)NC(=O)[C@H](CCCN)NC(=O)[C@H](CCCNC(N)=O)NC(=O)[C@H](Cc2ccc(-c3ccccc3)cc2)NC(=O)[C@H](C(C)C)NC(=O)[C@H](Cc2c[nH]c3ccccc23)NC(=O)[C@H](CC(=O)O)NC(=O)[C@H](Cc2ccc(O)cc2)NC(=O)[C@H](Cc2ccncc2)NC(=O)CSC[C@@H](C(=O)N[C@@H](C)C(N)=O)NC(=O)[C@H]([C@@H](C)O)NC(=O)[C@H](C(C)C)NC1=O` [Compound 1044] ({CH2CO}-[4Pal]YDWV[Bip][Cit][Orn][dL][Dab]LVTCA-NH2; thioether N-14) the IC50 was 0.0261 µM. In the case of `CC(C)C[C@H]1NC(=O)[C@H](CCCN)NC(=O)[C@H](C(C)C)NC(=O)[C@H](Cc2ccc(-c3ccccc3)cc2)NC(=O)[C@H](C(C)C)NC(=O)[C@H](Cc2cccc(C(F)(F)F)c2)NC(=O)[C@H](CC(=O)O)NC(=O)[C@H](Cc2ccc(OCC(=O)O)cc2)NC(=O)[C@H](CN)NC(=O)CSC[C@@H](C(=O)N[C@@H](C)C(N)=O)NC(=O)[C@H]([C@@H](C)O)NC(=O)[C@H](C(C)C)NC(=O)[C@H](CC2CCCCC2)NC(=O)[C@H](CCN)NC1=O` [Compound 1576], the IC50 is reported as 0.0303 µM. `CC(C)C[C@H]1NC(=O)[C@H](CCCN)NC(=O)[C@H](CCC(=O)O)NC(=O)[C@H](Cc2ccc(-c3ccccc3)cc2)NC(=O)[C@H](C(C)C)NC(=O)[C@H](Cc2c[nH]c3ccccc23)NC(=O)[C@H](CC(=O)O)NC(=O)[C@H](Cc2ccc(C(=O)O)cc2)NC(=O)[C@H](Cc2ccccc2)NC(=O)CSC[C@@H](C(=O)N[C@@H](C)C(N)=O)NC(=O)[C@H]([C@@H](C)O)NC(=O)[C@H](C(C)C)NC(=O)[C@H](CC2CCCCC2)NC(=O)[C@H](CCN)NC1=O` [Compound 2158] ({CH2CO}-F[Phe(4-COOH)]DWV[Bip]E[Orn][dL][Dab][Cha]VTCA-NH2; thioether N-14) gave an IC50 of 0.0077 µM. In the case of `CC(C)C[C@H]1NC(=O)[C@H](CCCN)NC(=O)[C@H](CCN)NC(=O)[C@H](Cc2ccc(-c3ccccc3)cc2)NC(=O)[C@H](C(C)C)NC(=O)[C@H](Cc2c[nH]c3ccccc23)NC(=O)[C@H](CC(=O)O)NC(=O)[C@H](Cc2ccc(O)cc2)NC(=O)[C@H](CC(N)=O)NC(=O)CSC[C@@H](C(=O)N[C@@H](C)C(N)=O)NC(=O)[C@H]([C@@H](C)O)NC(=O)[C@H](C(C)C)NC(=O)[C@H](CC2CCCCC2)NC(=O)[C@H](CCN)NC1=O` [Compound 1379], the IC50 is reported as 0.033 µM. For `CC(C)C[C@H]1NC(=O)[C@H](CCCN)NC(=O)[C@H](CCC(=O)O)NC(=O)[C@H](Cc2ccc(-c3ccccc3)cc2)NC(=O)[C@H](C(C)C)NC(=O)[C@H](Cc2ccccc2F)NC(=O)[C@H](CC(=O)O)NC(=O)[C@H](Cc2ccc(C#N)cc2)NC(=O)[C@H](CN)NC(=O)CSC[C@@H](C(=O)N[C@@H](C)C(N)=O)NC(=O)[C@H]([C@@H](C)O)NC(=O)[C@H](C(C)C)NC(=O)[C@H](CC2CCCCC2)NC(=O)[C@H](CCN)NC1=O` [Compound 2214], the IC50 was 0.0154 µM.

Reference: patent publication US20250163104A1, “MACROCYCLIC IMMUNOMODULATORS” (priority 2021, published 2025)
